The values below come from article PMC3969268 (Journal of medicinal chemistry, 2012).

For test [1], the target named is EfFtsZ (Enterococcus faecalis, UniProt O08439). The test can be described thus: FtsZ polymerization light-scattering. The format is biochemical, E. faecalis. The note with it: 40 μg/mL compound or comparator drug.
The test system of test [2] is S. aureus 8325-4. The test is described as follows: Minimum bactericidal concentration. The test is classed as cell-based.
In test [3] the test system is S. aureus 8325-4 (MSSA). The test can be described thus: MIC broth microdilution, S. aureus 8325-4. The test is classed as cell-based. To be noted: Staphylococcus aureus, MSSA, 24 h.
The subject of test [4] is S. aureus ATCC 49951 (MSSA). The test is described as follows: MIC broth microdilution, S. aureus ATCC 49951. To be noted: Staphylococcus aureus, ATCC49951|MSSA, 24 h. The test is classed as cell-based.

EfFtsZ, sequence (O08439 whole entry): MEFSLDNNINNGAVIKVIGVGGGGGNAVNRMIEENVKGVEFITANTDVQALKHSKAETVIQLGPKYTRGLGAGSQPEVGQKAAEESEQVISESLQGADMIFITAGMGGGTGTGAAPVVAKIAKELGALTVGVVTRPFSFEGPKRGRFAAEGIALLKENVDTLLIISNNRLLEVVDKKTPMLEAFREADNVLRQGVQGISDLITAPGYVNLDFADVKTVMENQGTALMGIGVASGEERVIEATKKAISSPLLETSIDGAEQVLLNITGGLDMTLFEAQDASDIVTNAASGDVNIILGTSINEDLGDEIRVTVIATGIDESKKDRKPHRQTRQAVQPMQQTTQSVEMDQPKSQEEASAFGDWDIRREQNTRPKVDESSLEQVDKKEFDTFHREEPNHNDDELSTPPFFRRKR

What is called MIC is the lowest concentration that inhibits growth of the organism. Read a low MIC as inhibition by little substance. With `CN[C@H](CC(C)C)C(=O)N[C@H]1C(=O)N[C@@H](CC(N)=O)C(=O)N[C@H]2C(=O)N[C@H]3C(=O)N[C@H](C(=O)N[C@H](C(=O)O)c4cc(O)cc(O)c4-c4cc3ccc4O)[C@H](O)c3ccc(c(Cl)c3)Oc3cc2cc(c3O[C@@H]2O[C@H](CO)[C@@H](O)[C@H](O)[C@H]2O[C@H]2C[C@](C)(N)[C@H](O)[C@H](C)O2)Oc2ccc(cc2Cl)[C@H]1O.Cl` [vancomycin], the “extent of stimulation of FtsZ polymerization (A340)” value in test [1] is recorded as “negligible impact”. The same compound registered an MBC/MIC in test [2] of 2. Also, the MIC in test [3] and in test [4] was 0.5 µg/mL throughout.
